Measurements reported in patent publication US11744816B2, “Fixed dose combinations and formulations comprising ETC1002 and ezetimibe and methods of treating or reducing the risk of cardiovascular disease” (Esperion Therapeutics, Inc., priority 2015, dated 2023).
Entries after “also recorded” stand apart in the source; their conditions may differ.

Key:
[1] = tested on: hypercholesterolemic patients; assay: Phase 2b double-blind trial: safety, treatment-emergent adverse events and laboratory abnormalities; conditions: for Most common AEs: ALT increased / Most common AEs: AST increased / Most common AEs: Arthralgia / Most common AEs: Back pain / Most common AEs: Blood CK increased / Most common AEs: Constipation / Most common AEs: Headache / Most common AEs: Myalgia / Most common AEs: Nasopharyngitis / Most common AEs: Upper respiratory tract infection / Most common AEs: Urinary tract infection / Treatment-emergent AEs: Any AE(s) / Treatment-emergent AEs: Discontinuation due to AE(s) / Treatment-emergent AEs: Serious AE(s) / Treatment-emergent AEs: Study drug-related AE(s) / Any muscle-related AE / Muscle-related AE leading to discontinuation / Muscle-related AEs: Muscle spasms / Muscle-related AEs: Muscular weakness / Muscle-related AEs: Musculoskeletal chest pain / Muscle-related AEs: Musculoskeletal stiffness / Muscle-related AEs: Myalgia / Muscle-related AEs: Pain in extremity / Muscle-related AEs: Sensation of heaviness / Muscle-related AEs: Musculoskeletal pain: 12 weeks; for Most common AEs: ALT increased / Most common AEs: AST increased / Most common AEs: Arthralgia / Most common AEs: Back pain / Most common AEs: Blood CK increased / Most common AEs: Constipation / Most common AEs: Headache / Most common AEs: Myalgia / Most common AEs: Nasopharyngitis / Most common AEs: Upper respiratory tract infection / Most common AEs: Urinary tract infection / Treatment-emergent AEs: Any AE(s) / Treatment-emergent AEs: Discontinuation due to AE(s) / Treatment-emergent AEs: Serious AE(s) / Treatment-emergent AEs: Study drug-related AE(s): safety population; for Myalgia, patients affected: entire study population
Experimental: The study population included both statin-tolerant and statin-intolerant participants. Statin intolerance was defined as the inability to tolerate ≥2 statins because of muscle-related symptoms such as pain, weakness, or cramping that began or increased during statin therapy and resolved on statin discontinuation. At least 1 statin must have been administered at the lowest approved daily dose, defined as rosuvastatin 5 mg, atorvastatin 10 mg, simvastatin 10 mg, lovastatin 20 mg, pravastatin 40 mg, fluvastatin 40 mg, or pitavastatin 2 mg. Treatment with less than the lowest approved daily dose of a statin (i.e., skipping days) was considered equivalent to not tolerating 1 statin at the lowest approved daily dose.
Patients underwent a 5-week washout of all lipid-regulating drugs and dietary supplements and abstained from these drugs and supplements throughout the study. Patients also underwent a 5-week patient-only-blinded placebo run-in during the screening period (week −5 to week 0). This single-blind placebo run-in period was used to eliminate patients with muscle-related AEs during placebo treatment. Patients reporting new or worsening, unexplained muscle-related AEs during this run-in period were excluded from the study.
Patients were stratified (1:1) by history of statin intolerance and randomized at week 0 in a 4:4:4:1:1 ratio to once-daily treatment with capsules containing ETC-1002 120 mg, ETC-1002 180 mg, EZE, ETC-1002 120 mg plus EZE, or ETC-1002 180 mg plus EZE.
The safety of ETC-1002 was assessed using treatment-emergent AEs; hematology, serum chemistry, and urinalysis laboratory values; physical examination findings, vital sign measurements, electrocardiogram (ECG) readings; weight; and ankle and waist circumference measurements. AEs were coded using the Medical Dictionary for Regulatory Activities version 16.0 and evaluated by the investigator for severity and relation to study drug. Muscle-related AEs were defined as those from the system organ class of musculoskeletal and connective tissue disorders, except for those that were not obviously muscle related Terms included in the muscle-related AFE analysis were selected from this system organ class after database lock and before unblinding.
Safety analyses were performed on the safety population, which included randomized patients who received at least 1 dose of study drug. Baseline patient characteristics were summarized for the safety population by treatment group and statin-tolerance subgroup.
Muscle-related AEs also were summarized by statin-tolerance subgroup.

[2] = tested on: hypercholesterolemic patients; assay: Phase 2b double-blind trial: percent changes from baseline to week 12 in lipids and CRP; assay type: in vivo, human; conditions: for Percent change from baseline to week 12 in Apolipoprotein A-I / Percent change from baseline to week 12 in Apolipoprotein B / Percent change from baseline to week 12 in HDL particle number / Percent change from baseline to week 12 in HDL-C / Percent change from baseline to week 12 in LDL particle number / Percent change from baseline to week 12 in LDL-C / Percent change from baseline to week 12 in Non-HDL-C / Percent change from baseline to week 12 in Total cholesterol / Percent change from baseline to week 12 in VLDL particle number: 12 weeks, mITT; for Percent change from baseline to week 12 in Apolipoprotein A-I / Percent change from baseline to week 12 in Apolipoprotein B / Percent change from baseline to week 12 in HDL particle number / Percent change from baseline to week 12 in HDL-C / Percent change from baseline to week 12 in LDL particle number / Percent change from baseline to week 12 in LDL-C / Percent change from baseline to week 12 in Non-HDL-C / Percent change from baseline to week 12 in Total cholesterol: LS mean ± SE; for Percent change from baseline to week 12 in VLDL particle number: median (interquartile range)
Experimental: LDL-C was calculated using the Friedewald equation.
The primary endpoint was the percent change from baseline to week 12 in calculated LDL-C in patients treated with ETC-1002 monotherapy versus those treated with EZE alone. Secondary endpoints included the dose-response relationship between ETC-1002 and the percent change in LDL-C from baseline to week 12, the percent change in LDL-C from baseline to week 12 in patients treated with ETC-1002 plus EZE versus those treated with EZE alone, and the percent change from baseline to week 12 for all treatment groups in LDL particle number, apolipoprotein B, total cholesterol, non-high-density lipoprotein cholesterol (non-HDL-C), HDL-C, HDL particle number, apolipoprotein A-I, triglycerides, very-low-density lipoprotein (VLDL) particle number, and high-sensitivity C-reactive protein (CRP). Lipoprotein particle number was measured using nuclear magnetic resonance […].
An analysis of covariance was used to compare each ETC-1002 treatment group with EZE monotherapy for each of the efficacy endpoints. The primary model included the effects of treatment and statin intolerance and the baseline value as a covariate. Baseline was defined as the mean of values from weeks −1 and 0 for LDL-C, non-HDL-C, total cholesterol, HDL-C, and triglycerides. For all other lipid and biomarker measures, baseline was defined as the last value before the first dose of study drug. Missing values at week 12 were imputed using the last-observation-carried-forward procedure. When LDL-C could not be calculated (i.e., triglycerides >400 mg/dL), beta-quantification measurements were used to determine LDL-C values. Least-squares (LS) means and standard errors were obtained for each treatment group; differences in LS means and p-values were obtained for the treatment comparisons. Graphical methods (e.g., normal probability plot and histogram of residuals, plot of residuals vs. predicted values) or analytical methods (e.g., Shapiro-Wilk test), or both, were used to assess the model assumptions. Because of departures from normality observed in the parameters of triglycerides, CRP, and VLDL particle number, nonparametric analyses were performed for these measures, with p-values obtained from the Wilcoxon rank-sum test and median values presented.
Percent changes from baseline in LDL-C also were summarized by statin-tolerance subgroup. To assess the dose-response relationship for ETC-1002 monotherapy, the primary analysis of covariance model was used for the comparison of the ETC-1002 120 mg and ETC-1002 180 mg. Statistical testing of the efficacy endpoints was 2-sided and conducted at the 5% level of significance with no adjustment for multiple comparisons.

[3] = ETC-1002 120 mg once daily, statin-intolerant patients
[4] = ETC-1002 120 mg once daily, statin-tolerant patients
[5] = ETC-1002 180 mg once daily, statin-intolerant patients
[6] = ETC-1002 180 mg once daily, statin-tolerant patients

SMILES: CC(C)(CCCCCC(O)CCCCCC(C)(C)C(=O)O)C(=O)O [ETC-1002, 8-hydroxy-2,2,14,14 tetramethylpentadecanedioic acid]
- Alanine aminotransferase or aspartate aminotransferase, or both, increased >3 times the upper limit of normal at any measurement ([1]; ETC-1002 120 mg): 1 patients
- Serious AEs reported (events) ([1]; ETC-1002 120 mg): hemothorax; also recorded: sudden death
- Most common AEs: ALT increased ([1]; ETC-1002 120 mg once daily): 0 n (%)
- Most common AEs: AST increased ([1]; ETC-1002 120 mg once daily): 0 n (%)
- Most common AEs: Arthralgia ([1]; ETC-1002 120 mg once daily): 4 (4%) n (%)
- Most common AEs: Back pain ([1]; ETC-1002 120 mg once daily): 1 (1%) n (%)
- Most common AEs: Blood CK increased ([1]; ETC-1002 120 mg once daily): 1 (1%) n (%)
- Most common AEs: Constipation ([1]; ETC-1002 120 mg once daily): 3 (3%) n (%)
- Most common AEs: Headache ([1]; ETC-1002 120 mg once daily): 3 (3%) n (%)
- Most common AEs: Myalgia ([1]; ETC-1002 120 mg once daily): 3 (3%) n (%)
- Most common AEs: Nasopharyngitis ([1]; ETC-1002 120 mg once daily): 3 (3%) n (%)
- Most common AEs: Upper respiratory tract infection ([1]; ETC-1002 120 mg once daily): 6 (6%) n (%)
- Most common AEs: Urinary tract infection ([1]; ETC-1002 120 mg once daily): 0 n (%)
- Treatment-emergent AEs: Any AE(s) ([1]; ETC-1002 120 mg once daily): 50 (51%) n (%)
- Treatment-emergent AEs: Discontinuation due to AE(s) ([1]; ETC-1002 120 mg once daily): 3 (3%) n (%)
- Treatment-emergent AEs: Serious AE(s) ([1]; ETC-1002 120 mg once daily): 2 (2%) n (%)
- Treatment-emergent AEs: Study drug-related AE(s) ([1]; ETC-1002 120 mg once daily): 13 (13%) n (%)
- Any muscle-related AE [1, 3]: 7 (14%) n (%)
- Muscle-related AE leading to discontinuation [1, 3]: 1 (2%) n (%)
- Muscle-related AEs: Muscle spasms [1, 3]: 3 (6%) n (%)
- Muscle-related AEs: Muscular weakness [1, 3]: 2 (4%) n (%)
- Muscle-related AEs: Musculoskeletal chest pain [1, 3]: 0 n (%)
- Muscle-related AEs: Musculoskeletal stiffness [1, 3]: 0 n (%)
- Muscle-related AEs: Myalgia [1, 3]: 2 (4%) n (%)
- Muscle-related AEs: Pain in extremity [1, 3]: 1 (2%) n (%)
- Muscle-related AEs: Sensation of heaviness [1, 3]: 0 n (%)
- Any muscle-related AE [1, 4]: 1 (2%) n (%)
- Muscle-related AE leading to discontinuation [1, 4]: 0 n (%)
- Muscle-related AEs: Muscle spasms [1, 4]: 0 n (%)
- Muscle-related AEs: Musculoskeletal pain [1, 4]: 0 n (%)
- Muscle-related AEs: Myalgia [1, 4]: 1 (2%) n (%)
- Myalgia, patients affected ([1]; ETC-1002 120 mg): 3%
- Alanine aminotransferase or aspartate aminotransferase, or both, increased >3 times the upper limit of normal at any measurement ([1]; ETC-1002 180 mg): 2 patients
- Serious AEs reported (events) ([1]; ETC-1002 180 mg): pancreatitis relapse
- Most common AEs: ALT increased ([1]; ETC-1002 180 mg once daily): 0 n (%)
- Most common AEs: AST increased ([1]; ETC-1002 180 mg once daily): 0 n (%)
- Most common AEs: Arthralgia ([1]; ETC-1002 180 mg once daily): 1 (1%) n (%)
- Most common AEs: Back pain ([1]; ETC-1002 180 mg once daily): 1 (1%) n (%)
- Most common AEs: Blood CK increased ([1]; ETC-1002 180 mg once daily): 4 (4%) n (%)
- Most common AEs: Constipation ([1]; ETC-1002 180 mg once daily): 1 (1%) n (%)
- Most common AEs: Headache ([1]; ETC-1002 180 mg once daily): 2 (2%) n (%)
- Most common AEs: Myalgia ([1]; ETC-1002 180 mg once daily): 1 (1%) n (%)
- Most common AEs: Nasopharyngitis ([1]; ETC-1002 180 mg once daily): 5 (5%) n (%)
- Most common AEs: Upper respiratory tract infection ([1]; ETC-1002 180 mg once daily): 6 (6%) n (%)
- Most common AEs: Urinary tract infection ([1]; ETC-1002 180 mg once daily): 4 (4%) n (%)
- Treatment-emergent AEs: Any AE(s) ([1]; ETC-1002 180 mg once daily): 55 (55%) n (%)
- Treatment-emergent AEs: Discontinuation due to AE(s) ([1]; ETC-1002 180 mg once daily): 6 (6%) n (%)
- Treatment-emergent AEs: Serious AE(s) ([1]; ETC-1002 180 mg once daily): 1 (1%) n (%)
- Treatment-emergent AEs: Study drug-related AE(s) ([1]; ETC-1002 180 mg once daily): 18 (18%) n (%)
- Any muscle-related AE [1, 5]: 6 (12%) n (%)
- Muscle-related AE leading to discontinuation [1, 5]: 2 (4%) n (%)
- Muscle-related AEs: Muscle spasms [1, 5]: 2 (4%) n (%)
- Muscle-related AEs: Muscular weakness [1, 5]: 1 (2%) n (%)
- Muscle-related AEs: Musculoskeletal chest pain [1, 5]: 1 (2%) n (%)
- Muscle-related AEs: Musculoskeletal stiffness [1, 5]: 0 n (%)
- Muscle-related AEs: Myalgia [1, 5]: 1 (2%) n (%)
- Muscle-related AEs: Pain in extremity [1, 5]: 1 (2%) n (%)
- Muscle-related AEs: Sensation of heaviness [1, 5]: 0 n (%)
- Any muscle-related AE [1, 6]: 0 n (%)
- Muscle-related AE leading to discontinuation [1, 6]: 0 n (%)
- Muscle-related AEs: Muscle spasms [1, 6]: 0 n (%)
- Muscle-related AEs: Musculoskeletal pain [1, 6]: 0 n (%)
- Muscle-related AEs: Myalgia [1, 6]: 0 n (%)
- Myalgia, patients affected ([1]; ETC-1002 180 mg): 1%
- Decrease in median CRP from baseline to week 12 endpoint ([2]; ETC-1002 120 mg): 30%
- LDL-C reduction from baseline to week 12 ([2]; ETC-1002 120 mg alone): 27%
- Percent change from baseline to week 12 in Apolipoprotein A-I ([2]; ETC-1002 120 mg once daily): −0.2 ± 1.1%
- Percent change from baseline to week 12 in Apolipoprotein B ([2]; ETC-1002 120 mg once daily): −19.3 ± 1.3 %
- Percent change from baseline to week 12 in HDL particle number ([2]; ETC-1002 120 mg once daily): 5.0 ± 1.3%
- Percent change from baseline to week 12 in HDL-C ([2]; ETC-1002 120 mg once daily): −5.8 ± 1.4 %
- Percent change from baseline to week 12 in LDL particle number ([2]; ETC-1002 120 mg once daily): −21.8 ± 1.7 %
- Percent change from baseline to week 12 in LDL-C ([2]; ETC-1002 120 mg once daily): −27.5 ± 1.3 %
- Percent change from baseline to week 12 in Non-HDL-C ([2]; ETC-1002 120 mg once daily): −23.2 ± 1.2 %
- Percent change from baseline to week 12 in Total cholesterol ([2]; ETC-1002 120 mg once daily): −19.3 ± 0.9 %
- Percent change from baseline to week 12 in VLDL particle number ([2]; ETC-1002 120 mg once daily): −2.7 (68.5) %
- Decrease in median CRP from baseline to week 12 endpoint ([2]; ETC-1002 180 mg): 40%
- LDL-C reduction from baseline to week 12 ([2]; ETC-1002 180 mg alone): 30%
- Percent change from baseline to week 12 in Apolipoprotein A-I ([2]; ETC-1002 180 mg once daily): 0.1 ± 1.2%
- Percent change from baseline to week 12 in Apolipoprotein B ([2]; ETC-1002 180 mg once daily): −21.3 ± 1.3 %
- Percent change from baseline to week 12 in HDL particle number ([2]; ETC-1002 180 mg once daily): 6.2 ± 1.4%
- Percent change from baseline to week 12 in HDL-C ([2]; ETC-1002 180 mg once daily): −4.8 ± 1.4 %
- Percent change from baseline to week 12 in LDL particle number ([2]; ETC-1002 180 mg once daily): −24.6 ± 1.8 %
- Percent change from baseline to week 12 in LDL-C ([2]; ETC-1002 180 mg once daily): −30.1 ± 1.3 %
- Percent change from baseline to week 12 in Non-HDL-C ([2]; ETC-1002 180 mg once daily): −25.3 ± 1.1 %
- Percent change from baseline to week 12 in Total cholesterol ([2]; ETC-1002 180 mg once daily): −20.7 ± 0.9 %
- Percent change from baseline to week 12 in VLDL particle number ([2]; ETC-1002 180 mg once daily): 15.3 (80.5) %
- LDL-C reduction from baseline to week 12 ([2]; ETC-1002 alone (120 mg or 180 mg), up to): up to 30%
